Results taken from BindingDB's records for patent US10266550 (The Florida International University Board of Trustees, 2019).

Molecular target: DNA topoisomerase 2-alpha (Homo sapiens, UniProt P11388)
Experiment: Human Topoisomerase IIalpha Decatenation Inhibition Assay
Experimental: The samples were incubated for 15 minutes at 37° C. before the addition of 4 μL of a stop buffer containing 5% sarkosyl, 0.25% bromophenol blue, and 25% glycerol. The reactions were then analyzed by electrophoresis in 1% agarose gels containing […] ethidium bromide before being photographed under UV light.

Chain of DNA topoisomerase 2-alpha (P11388 whole entry): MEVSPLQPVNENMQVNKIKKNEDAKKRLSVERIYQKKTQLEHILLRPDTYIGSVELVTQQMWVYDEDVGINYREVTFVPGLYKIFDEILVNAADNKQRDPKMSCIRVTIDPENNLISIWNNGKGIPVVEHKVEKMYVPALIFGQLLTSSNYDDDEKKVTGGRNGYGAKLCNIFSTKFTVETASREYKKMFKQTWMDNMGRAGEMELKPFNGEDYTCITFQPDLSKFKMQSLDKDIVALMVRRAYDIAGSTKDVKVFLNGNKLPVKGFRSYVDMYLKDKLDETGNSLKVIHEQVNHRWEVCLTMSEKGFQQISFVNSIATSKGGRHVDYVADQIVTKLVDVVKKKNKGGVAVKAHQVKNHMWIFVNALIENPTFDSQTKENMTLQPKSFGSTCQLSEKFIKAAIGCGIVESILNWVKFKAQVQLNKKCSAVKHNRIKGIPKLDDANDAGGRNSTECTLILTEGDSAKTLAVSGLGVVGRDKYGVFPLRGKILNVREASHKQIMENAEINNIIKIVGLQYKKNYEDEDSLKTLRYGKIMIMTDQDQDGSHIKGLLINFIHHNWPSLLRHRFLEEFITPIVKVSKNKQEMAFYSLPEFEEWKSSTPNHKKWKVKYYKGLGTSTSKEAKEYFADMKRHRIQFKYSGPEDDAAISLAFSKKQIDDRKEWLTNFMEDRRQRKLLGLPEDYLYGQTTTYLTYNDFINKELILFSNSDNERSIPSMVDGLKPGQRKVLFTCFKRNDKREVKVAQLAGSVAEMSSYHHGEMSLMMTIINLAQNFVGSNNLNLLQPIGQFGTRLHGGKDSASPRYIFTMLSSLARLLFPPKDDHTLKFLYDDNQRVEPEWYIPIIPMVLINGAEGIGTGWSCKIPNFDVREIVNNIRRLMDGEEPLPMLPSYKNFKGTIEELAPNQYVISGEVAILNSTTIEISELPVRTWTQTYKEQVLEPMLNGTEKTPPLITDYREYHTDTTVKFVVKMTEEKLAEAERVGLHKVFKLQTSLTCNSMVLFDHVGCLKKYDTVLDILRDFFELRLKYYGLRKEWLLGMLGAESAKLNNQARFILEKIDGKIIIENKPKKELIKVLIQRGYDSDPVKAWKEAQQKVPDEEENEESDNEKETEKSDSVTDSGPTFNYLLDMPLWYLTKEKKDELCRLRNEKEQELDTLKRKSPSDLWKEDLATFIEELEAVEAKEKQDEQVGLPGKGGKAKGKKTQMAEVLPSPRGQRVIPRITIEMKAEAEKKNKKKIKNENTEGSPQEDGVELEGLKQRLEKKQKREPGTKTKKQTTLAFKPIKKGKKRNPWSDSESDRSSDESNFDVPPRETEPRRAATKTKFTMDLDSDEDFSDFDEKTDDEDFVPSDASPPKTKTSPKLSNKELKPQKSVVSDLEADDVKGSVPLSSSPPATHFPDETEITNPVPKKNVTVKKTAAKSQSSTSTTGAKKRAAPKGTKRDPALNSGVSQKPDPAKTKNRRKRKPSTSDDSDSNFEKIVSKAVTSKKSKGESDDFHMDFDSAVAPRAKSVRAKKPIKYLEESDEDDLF

IC50	Structure (SMILES)
2.93 µM	Nc1ccc2c(c1)Oc1c(N3CCNCC3)c(F)cc3c(=O)c(C(=O)O)cn-2c13 [US10266550, Compound 11b]
5.85 µM	CN1CCN(c2c(F)cc3c(=O)c(C(=O)O)cn4c3c2Oc2cc(N)ccc2-4)CC1 [US10266550, Compound 11a]
2.93 µM	N[C@H]1CCN(c2c(F)cc3c(=O)c(C(=O)O)cn4c3c2Oc2cc([N+](=O)[O-])ccc2-4)C1 [US10266550, Compound 16]
